# Test results: US20110217300A1, “Quinazolinone Compounds and Methods of Use Thereof” (priority 2007, published 2011)
# Columns and labels:
# Assay in all cases: MTS cell viability assay
# Format in all cases: cell-based
# CFPPAC-1 = conditions: Pancreasductal adenocarcinoma, cystic fibrosis
# Method: (§1) Cell viability was determined by measuring the activity of dehydrogenase enzymes in metabolically active cells using a tetrazolium compound, MTS. The assay was performed as described in Promega Technical Bulletin No. 169 (CellTiter 96 Aqueous Non-Radioactive Cell Proliferation Assay). Two human cancer cell lines were assayed (see, Table 1). Cells were maintained at 37° C. and 5% CO2 in DMEM media (4.5 g/L glucose) supplemented with 10% heat-inactivated FBS, 10 mM L-glutamine, and 10 mM Hepes pH 7.5. Briefly, cells were seeded in 96-well plates as set forth in Table 1 and incubated for 16-24 hours. Candidate compounds were serially diluted in DMSO, further diluted in cell culture media, and then added to cells (final DMSO concentration of 0.33%). Cells were incubated in the presence of candidate compound for 72 hours. MTS stock solution (MTS 2 gm/L, PMS […] in PBS) was added to the cells (final concentration MTS […] and PMS 7.67 mg/L) and incubated for 4 hours. SDS was added to a final concentration of 1.4% and absorbance at 490 nm was measured within two hours using a plate reader. […] GI50 values were given in Table 2 for the compounds listed. The Compound Numbers in Table 2 correspond to the numbers listed parenthetically in the Example titles. Where multiple measurements were made by different technicians, both values are given.
# (§2) Cell viability was determined for N-(3-amino-propyl)-3-chloro-N—[(R)-1-(7-chloro-4-oxo-3-phenylamino-3,4-dihydro-quinazolin-2-yl)-but-3-ynyl]-2-fluoro-benzamide (compound I of Table 2). The cell viability assay of Example 105 was used. GI50 was determined using a variety of cell lines. Cells were plated at 100-5000 cells per well. At least 2 replicates were performed. Where multiple measurements were made by different technicians, both values are given.
# A-375 = conditions: Homo sapiens, Malignant melanoma
# Method: as §1, §2
# SW780 = conditions: Homo sapiens, bladder
# Method: as §1, §2
# CAKI-2 = conditions: Homo sapiens, kidney
# Method: as §1, §2
# ASPC-1 = conditions: Homo sapiens, ASPC1, pancreas
# Method: as §1, §2
# LS174T = conditions: Homo sapiens, Colorectal Carcinoma
# Method: as §1, §2
# HEP-3B = conditions: Homo sapiens, Hep3B, liver
# Method: as §1, §2
# A375 = conditions: skin
# Method: as §1, §2
# THP-1 = conditions: Homo sapiens, Acute monocytic leukemia
# Method: as §1, §2
# A427 = conditions: Homo sapiens, A-427, Lung Carcinoma
# Method: as §1, §2
# SW620 = conditions: Homo sapiens, SW-620, Colorectal adenocarcinoma
# Method: as §1, §2
# BDCM = conditions: Lymphoblast
# Method: as §1, §2
# Kato III = conditions: Homo sapiens, Gastric Carcinoma
# Method: as §1, §2
# LS411N = conditions: Homo sapiens, LS-411N, colon
# Method: as §1, §2
# NCI-H661 = conditions: Homo sapiens, Large cell Lung Cancer
# Method: as §1, §2
# MDA-MB-231 = conditions: Breast adenocarcinoma
# Method: as §1, §2
# CALU-6 = conditions: Homo sapiens, lung
# Method: as §1, §2
# U937 = conditions: Homo sapiens, U-937, Monocyte Histocytic Lymphoma
# Method: as §1, §2
# NCI-H526 = conditions: Homo sapiens, Lung carcinoma, variant small cell lung cancer
# Method: as §1, §2
# K562 = conditions: CML
# Method: as §1, §2
# NCI-H520 = conditions: Homo sapiens, Squamous cell lung carcinoma
# Method: as §1, §2
# KG-1a = conditions: Homo sapiens, AML
# Method: as §1, §2
# DU145 = conditions: prostate
# Method: as §1, §2
smiles,measurement,setting,value
"C#CC[C@H](c1nc2cc(Cl)ccc2c(=O)n1Nc1ccccc1)N(CCCN)C(=O)c1cccc(Cl)c1F [Compound 1, N-(3-Amino-propyl)-3-chloro-N—[(R)-1-(7-chloro-4-oxo-3-phenylamino-3,4-dihydro-quinazolin-2-yl)-but-3-ynyl]-2-fluoro-benzamide]",GI50,CFPPAC-1,2080 nM
same,GI50,A-375,766 nM
same,GI50,SW780,220 nM
same,GI50,CAKI-2,4240 nM
same,GI50,ASPC-1,549 nM
same,GI50,LS174T,796 nM
same,GI50,HEP-3B,773 nM
same,GI50,"A375; A375, listed as I",752 nM
same,GI50,"A375; Homo sapiens, A-375, A375",405 nM
same,GI50,THP-1,226 nM
same,GI50,A427,64 nM
same,GI50,SW620,317 nM
same,GI50,BDCM,207 nM
same,GI50,Kato III,202 nM
same,GI50,LS411N,237 nM
same,GI50,NCI-H661,109 nM
same,GI50,"MDA-MB-231; Homo sapiens, MDA-MB-231, MDA-MB-231",359 nM
same,GI50,"MDA-MB-231; MDA-MB-231, listed as I",249 nM
same,GI50,CALU-6,105 nM
same,GI50,U937,155 nM
same,GI50,NCI-H526,125 nM
same,GI50,"K562; Homo sapiens, K562, K562",133 nM
same,GI50,"K562; K562, listed as I",184 nM
same,GI50,NCI-H520,139 nM
same,GI50,KG-1a,3200 nM
same,GI50,"DU145; DU145, listed as I",304 nM
same,GI50,"DU145; Homo sapiens, DU-145, DU145",303 nM
